From patent US11879145B2, “Reagents and methods for replication, transcription, and translation in semi-synthetic organisms” (The Scripps Research Institute, priority 2019, dated 2024)

Tested on: sfGFP^151(AXC)
Assay: In vivo translation screen of XTPs/YTPs: total sfGFP fluorescence
Assay type: cell-based, E. coli
Experimental: In vivo Translation Screen of XTPs/YTPs. An overnight culture of the SSO strain ML2 carrying the pGEX-MbPylRS TetR plasmid was grown in 2×YT supplemented with 50 mM potassium phosphate, […] chloramphenicol and 100 μg/mL carbenicillin (herein referred to in this section as “media”), then diluted back to an OD600 of 0.03 in the same media and grown to an OD600 of 0.4 to 0.6. The culture was then chilled with shaking over ice-water for 15 minutes then pelleted by centrifugation at 3,200×g for 10 min. Cells were then resuspended and washed with ice-cold ddH2O twice then resuspended in ice-cold ddH2O to OD600 of 55-65. The electrocompetent cells (50 μL) and 1 ng of Golden Gate assembled plasmid with the UBP within the sfGFP and tRNAPyl genes (see Golden Gate Assembly of Plasmids) were transferred to a pre-chilled electroporation cuvette (0.2-cm-gap), then electroporated (Gene Pulser II; Bio-Rad) according to manufacturer's recommendations (voltage […], capacitor 2.5 μF, resistor 200Ω), and then immediately diluted with 950 μL of media. An aliquot (40 μL) of the transformation was then diluted five-fold in media supplemented with dCNMOTP (25 μM) and dTPT3TP (10 μM) for a final volume of 200 μL then allowed to recover for 1 h shaking at 37° C. Two-fold dilutions of the recovery were plated onto solid media supplemented with zeocin (50 μg/mL), dCNMOTP (10 μM), dTPT3TP (10 μM), and agar (2% w/v), then grown at 37° C. for 18 h. Single colonies were picked and grown in media (300 μL) supplemented with 50 μg/mL zeocin and provided dCNMOTP (25 μM) and dTPT3TP (10 μM) (herein afterward referred to in this section as “growth media”). The culture was monitored for cell growth (Envision 2103 Multilabel Plate Reader with a 590/20 nm filter) and then collected at an OD600˜1.0. An aliquot (50 μL) was subjected to plasmid isolation using the ZR Plasmid Prep Kit (Zymo Research). Isolated plasmids were then subjected to the streptavidin gel shift assay described below (using primers P3-4 and P5-6, Table S1) to determine UBP retention.
A colony with excellent UBP retention was then diluted to an OD600˜0.01 in growth media and grown to OD600˜0.4-0.6. This culture was then divided into multiple 300 μL cultures and for the screen of XTP analogs, each was provided with the corresponding XTP (at either 25 μM or 250 μM) or ddH2O for “−XTP” samples, TPT3TP (30 μM), and AzK (10 mM). For the screen of YTP analogs, each 300 μL culture was provided with the corresponding YTP (at either 25 μM or 250 μM) or ddH2O for “−YTP” samples, NaMTP (250 μM), and AzK (10 mM). Samples were shielded from light after addition of AzK to prevent photodegradation. These samples were then grown at 37° C. for 20 min before adding 1 mM IPTG and grown at 37° C. for an additional 1 h to induce T7 RNAP and transcription of tRNAPyl and PylRS. From this point on, cells were monitored for growth and fluorescence. Expression of sfGFP was then induced with anhydrotetracycline (100 ng/mL). After an additional 3 h of growth at 37° C., cells were collected (230 μL for affinity purification of sfGFP), cooled, and then pelleted and stored at −80° C. before protein purification.
An SAR analysis was initiated with NaMTP and the nine XTP analogs. Based on performance in the dXTP screen described above, and to eliminate variable loss at the DNA level as a complicating factor, the unnatural information was encoded with the dCNMO-dTPT3 UBP. Additionally, the E. coli strain ML2, which expresses the nucleoside triphosphate transporter PtNTT2, but has also been genetically engineered for higher fidelity replication of the UBP by deletion of the gene encoding RecA (as is common in cloning strains) and overexpression of DNA Pol II was used. The same plasmid described above in Examples 1A and 1, harboring sfGFP^151(AXC) and tRNA^Pyl(GYT), was used, and to focus the screen to a single unnatural ribonucleotide, the M. mazei Pyl tRNA was transcribed in the presence of 30 μM TPT3TP. […]

COc1cc(C)c(F)cc1[C@@H]1O[C@H](COP(=O)(O)OP(=O)(O)OP(=O)(O)O)[C@@H](O)[C@H]1O [Compound 5FMTP]
More fluorescence than MMO2TP (XTP 25 μM): 34%
Bulk fluorescence compared to cells grown with NaMTP at the same concentration (XTP 250 μM): 90%
